EC50 and IC50 data for 16 compounds are collected here from patent publication US11066414B2, “Cot modulators and methods of use thereof” (Gilead Sciences, Inc., priority 2015, dated 2021).

Assay [1] deals with TNFα. Put plainly: Cot Monocyte TNFα Cell Based Assay.
The target of assay [2] is Human Cot (Homo sapiens (Human), UniProt P41279). As to the kind of experiment: High Throughput Cot Biochemical Assay.
Where [3] appears, read: Homo sapiens, Monocyte, read-out: EC50 TNF, LPS-stimulated human monocytes, TNFα.
Where [4] appears, read: IC50 HTRF, Cot HTRF (TR-FRET) biochemical assay.

Read-outs that look alike come from different tables or passages of the source. A value given as a limit tells only on which side of the number the result lay.

Chain of Human Cot (P41279 30-397): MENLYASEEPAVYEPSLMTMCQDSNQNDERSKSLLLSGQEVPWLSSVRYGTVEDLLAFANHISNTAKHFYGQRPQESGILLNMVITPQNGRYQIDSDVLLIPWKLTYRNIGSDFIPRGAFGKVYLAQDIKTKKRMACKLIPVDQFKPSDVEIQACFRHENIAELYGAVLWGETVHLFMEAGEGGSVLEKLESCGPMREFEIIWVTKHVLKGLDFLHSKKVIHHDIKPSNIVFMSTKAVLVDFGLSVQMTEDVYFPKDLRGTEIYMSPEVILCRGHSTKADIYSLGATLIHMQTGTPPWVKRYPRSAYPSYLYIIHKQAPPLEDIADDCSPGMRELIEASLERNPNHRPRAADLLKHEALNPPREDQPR

As usually defined, the EC50 is the concentration that produces a half-maximal response. A word on the IC50: it is the concentration at which inhibition is half-maximal. With `Cc1nc(F)ccc1[C@H](Nc1cc(Cl)c2ncc(C#N)c(NCC(C)(C)C)c2c1)c1cn(CC2(C(F)F)CC2)nn1` [Example 752, (S)-8-chloro-6-(((1-((1-(difluoromethyl)cyclopropyl)-methyl)-1H-1,2,3-triazol-4-yl)(6-fluoro-2-methylpyridin-3-yl)methyl)amino)-4-(neopentylamino)quinoline-3-carbonitrile], in assay [1] (setting [3]), the EC50 came to 57 nM. Besides, inhibition in assay [2] (setting [4]) was half-maximal at 5 nM (IC50).

Consider `CC(C)n1cc([C@@H](Nc2cc(Cl)c3ncc(C#N)c(Nc4ccc(F)c(Cl)c4)c3c2)c2ccc3ncsc3c2)nn1` [Example 61, (S)-6-((benzo[d]thiazol-6-yl(1-isopropyl-1H-1,2,3-triazol-4-yl)nielhyl)amino)-8-chloro-4-((3-chloro-4-fluorophenyl)amino)quinoline-3-carbonitrile], for which the EC50 in assay [1] (read-out: EC50 TNF, LPS-stimulated human monocytes, TNFα) was 238 nM. Moreover, the IC50 in assay [2] (read-out: IC50 HTRF, Cot HTRF (TR-FRET) biochemical assay) was 11 nM.

Regarding `CC(C)(O)[C@H](Nc1c(C#N)cnc2c(Cl)cc(N[C@@H](c3cccnc3)c3c[nH]nn3)cc12)c1ccccc1` [Example 188, 8-chloro-4-(((R)-2-hydroxy-2-methyl-1-phenylpropyl)amino)-6-(((S)-pyridin-3-yl(1H-1,2,3-triazol-4-yl)methyl)amino)quinoline-3-carbonitrile], the EC50 in assay [1] (setting [3]) was more than 10000 nM. For the same compound, the IC50 in assay [2] (setting [4]) was more than 10000 nM.

Take `N#Cc1cnc2c(Cl)cc(N[C@@H](c3cncc(Cl)c3)c3c[nH]nn3)cc2c1Nc1cnc(F)c(F)c1` [Example 152, (S)-8-chloro-6-(((5-chloropyridin-3-yl)(1H-1,2,3-triazol-4-yl)methyl)amino)-4-((5,6-difluoropyridin-3-yl)amino)quinoline-3-carbonitrile]: the EC50 in assay [1] (setting [3]) was determined as 904 nM. The same compound registered an IC50 in assay [2] (setting [4]) of 10 nM.

As to `COc1ccc([C@H](Nc2cc(Cl)c3ncc(C#N)c(NCC(C)(C)C)c3c2)c2cn(C3(C(F)F)CC3)nn2)c(C)n1` [Example 729, (S)-8-chloro-6-(((1-(1-(difluoromethyl)cyclopropyl)-1H-1,2,3-triazol-4-yl)(6-methoxy-2-methylpyridin-3-yl)methyl)amino)-4-(neopentylamino)quinoline-3-carbonitrile], the EC50 in assay [1] (setting [3]) was found to be 108 nM. Besides, half-maximal inhibition in assay [2] (setting [4]) (IC50) required 5 nM.

As for `CN1Cc2cccc([C@H](Nc3cc(C#N)c4ncc(C#N)c(NCC(C)(C)C)c4c3)c3cn(C4CC4)nn3)c2C1=O` [Example 77, (S)-6-(((1-cyclopropyl-1H-1,2,3-triazol-4-yl)(2-methyl-3-oxoisoindolin-4-yl)methyl)amino)-4-(neopentylamino)quinoline-3,8-dicarbonitrile], the EC50 in assay [1] (setting [3]) was determined as 154 nM. This compound also showed an IC50 in assay [2] (setting [4]) of 3 nM.

As to `CC(C)(C)CNc1c(C#N)cnc2c(C#N)cc(N[C@H](c3cn(C4(C(N)=O)CCC4)nn3)c3cccc4cnccc34)cc12` [Example 587, (S)-1-(4-(((3,8-dicyano-4-(neopentylamino)-quinolin-6-yl)amino)(isoquinolin-5-yl)methyl)-1H-1,2,3-triazol-1-yl)cyclobutane-1-carboxamide], the EC50 in assay [1] (setting [3]) turned out to be 489 nM. For the same compound, half-maximal inhibition in assay [2] (setting [4]) (IC50) was put at 1 nM.

`CC[C@@H](Nc1c(C#N)cnc2c(Cl)cc(N[C@@H](c3cccnc3)c3cn(C4CC4)nn3)cc12)c1ccccc1` [Example 191, 8-chloro-6-(((S)-(1-cyclopropyl-1H-1,2,3-triazol-4-yl)(pyridin-3-yl)methyl)amino)-4-(((R)-1-phenylpropyl)amino)quinoline-3-carbonitrile]: the half-maximal effective concentration (EC50) in assay [1] (setting [3]) stood at 104 nM. The compound further showed an IC50 in assay [2] (setting [4]) of 2 nM.

As to `Cn1cnc2cccc([C@H](Nc3cc(Cl)c4ncc(C#N)c(NCC(C)(C)C)c4c3)c3cn(C4(C(F)(F)F)CC4)nn3)c21` [Example 483, (S)-8-chloro-6-(((1-methyl-1H-benzo[d]imidazol-7-yl)(1-(1-(trifluoromethyl)cyclopropyl)-1H-1,2,3-triazol-4-yl)methyl)amino)-4-(neopentylamino)quinoline-3-carbonitrile], the EC50 in assay [1] (setting [3]) amounted to 108 nM. Moreover, in assay [2] (setting [4]), half-maximal inhibition (IC50) was put at 7 nM.

On to `[2H][C@](Nc1cc(Cl)c2ncc(C#N)c(NCC(C)(C)C)c2c1)(c1cccnc1)c1cn(C2CC2)nn1` [Example 141, (S)-8-chloro-6-(((1-cyclopropyl-1H-1,2,3-triazol-4-yl)(pyridin-3-yl)methyl-d)amino)-4-(neopentylamino)quinoline-3-carbonitrile], for which, in assay [1] (setting [3]), the EC50 turned out to be 121 nM. The same compound came in with an IC50 in assay [2] (setting [4]) of 2 nM.

Regarding `[2H][C@](Nc1cc(OC)c2ncc(C#N)c(NCC(C)(C)C)c2c1)(c1ccc(F)nc1)c1cn(C2CC2)nn1` [Example 98, (S)-6-(((1-cyclopropyl-1H-1,2,3-triazol-4-yl)(6-fluoropyridin-3-yl)methyl-d)amino)-8-methoxy-4-(neopentylamino)quinoline-3-carbonitrile], the EC50 in assay [1] (setting [3]) was 821 nM. In addition, it took 49 nM to reach half-maximal inhibition in assay [2] (setting [4]) (IC50).

As to `Cc1nc(F)ccc1[C@H](Nc1cc(Cl)c2ncc(C#N)c(NCC3(C(F)F)CC3)c2c1)c1cn(C2(C(F)(F)F)CC2)nn1` [Example 636, (S)-8-chloro-4-(((1-(difluoromethyl)cyclopropyl)-methyl)amino)-6-(((6-fluoro-2-methylpyridin-3-yl)(1-(1-(trifluoromethyl)cyclopropyl)-1H-1,2,3-triazol-4-yl)methyl)amino)quinoline-3-carbonitrile], the EC50 in assay [1] (setting [3]) amounted to 720 nM. This compound gave an IC50 in assay [2] (setting [4]) of 69 nM.

Turning to `Cc1nc(F)ccc1[C@H](Nc1cc(Cl)c2ncc(C#N)c(NCC(C)(C)C)c2c1)c1cn(C2(CO)COC2)nn1` [Example 648, (S)-8-chloro-6-(((6-fluoro-2-methylpyridin-3-yl)(1-(3-(hydroxymethyl)oxetan-3-yl)-1H-1,2,3-triazol-4-yl)methyl)amino)-4-(neopentylamino)quinoline-3-carbonitrile], the EC50 in assay [1] (setting [3]) was found to be 114 nM. In assay [2] (setting [4]), this compound registered an IC50 of 3 nM.

Take `Cc1nc(F)ccc1[C@H](Nc1cc(Cl)c2ncc(C#N)c(NCC(C)(C)C(F)(F)F)c2c1)c1nnn(C2(C(F)F)CC2)c1F` [Example 948, (S)-8-chloro-6-(((1-(1-(difluoromethyl)cyclopropyl)-5-fluoro-1H-1,2,3-triazol-4-yl)(6-fluoro-2-methylpyridin-3-yl)methyl)amino)-4-((3,3,3-trifluoro-2,2-dimethylpropyl)amino)-quinoline-3-carbonitrile]: the EC50 in assay [1] (Homo sapiens, Monocyte, read-out: EC50 TNF, LPS-stimulated human monocytes, TNFα TR-FRET) stood at 99 nM. The compound also displayed a concentration for half-maximal inhibition (IC50) in assay [2] (IC50 HTRF, Cot HTRF (TR-FRET KinEASE) biochemical assay, 400 μM ATP) of 5 nM.

In the case of `Cc1nc(F)ccc1[C@H](Nc1cc(Cl)c2ncc(C#N)c(NCC(C)(C)C)c2c1)c1cn(CC(F)F)nn1` [Example 532, (S)-8-chloro-6-(((1-(2,2-difluoroethyl)-1H-1,2,3-triazol-4-yl)(6-fluoro-2-methyl-pyridin-3-yl)methyl)amino)-4-(neopentyl-amino)quinoline-3-carbonitrile], the EC50 in assay [1] (setting [3]) is 78 nM. The compound further yielded an IC50 in assay [2] (setting [4]) of 3 nM.

`CC(C)n1cc([C@@H](Nc2cc(Cl)c3ncc(C#N)c(Nc4ccc(F)c(Cl)c4)c3c2)C2=CCOCC2)nn1` [Example 244, (S)-8-chloro-4-((3-chloro-4-fluorophenyl)amino)-6-(((3,6-dihydro-2H-pyran-4-yl)(1-isopropyl-1H-1,2,3-triazol-4-yl)methyl)amino)quinoline-3-carbonitrile]: the EC50 in assay [1] (setting [3]) is 328 nM. The same compound showed an IC50 in assay [2] (setting [4]) of 4 nM.
